# Measured values published in ChEMBL document CHEMBL3885881, “DrugMatrix”.
# Species: Rattus norvegicus
# Assay: DrugMatrix - Regimen: Daily Repeat
# Assay type: toxicity, organism-based, Sprague-Dawley
# Design: regimen Daily Repeat, gender Male, age 6-8 weeks
# Conditions: in vivo, po, route oral GAVAGE, […]; for ABSOLUTE BASOPHIL / ABSOLUTE EOSINOPHIL / ABSOLUTE LYMPHOCYTE / ABSOLUTE MONOCYTE / ABSOLUTE SEGMENTED NEUTROPHIL / BASOPHIL / EOSINOPHIL / ERYTHROCYTE COUNT / HEMATOCRIT / HEMOGLOBIN / LEUKOCYTE COUNT / LYMPHOCYTE / MEAN CORPUSCULAR HEMOGLOBIN / MEAN CORPUSCULAR HEMOGLOBIN CONCENTRATION / MEAN CORPUSCULAR VOLUME / MONOCYTE / NEUTROPHIL / NUCLEATED RED BLOOD CELLS / PLATELET COUNT: tissue Blood; for ALANINE AMINOTRANSFERASE / ALKALINE PHOSPHATASE / ASPARTATE AMINOTRANSFERASE / BLOOD UREA NITROGEN / CARBON DIOXIDE / CHLORIDE / CHOLESTEROL / CREATINE PHOSPHOKINASE / CREATININE / GLUCOSE / LACTATE DEHYDROGENASE / LIPASE / PHOSPHORUS / POTASSIUM / SODIUM / TOTAL BILIRUBIN / TOTAL PROTEIN / URIC ACID: tissue Plasma
# [1] = 36 mg/kg, 120 h, dose level Low, time 5 day
# [2] = 386 mg/kg, 72 h, dose level High, time 3 day
# [3] = 386 mg/kg, 120 h, dose level High, time 5 day
structure (smiles),measurement,setting,value
c1ccc2c(c1)Nc1ccccc1S2 [PHENOTHIAZINE],ABSOLUTE BASOPHIL,[1],0 CELLS/uL
same,ABSOLUTE EOSINOPHIL,[1],85 CELLS/uL
same,ABSOLUTE LYMPHOCYTE,[1],7942.67 CELLS/uL
same,ABSOLUTE MONOCYTE,[1],54.67 CELLS/uL
same,ABSOLUTE SEGMENTED NEUTROPHIL,[1],984.33 CELLS/uL
same,BASOPHIL,[1],0%
same,EOSINOPHIL,[1],1%
same,ERYTHROCYTE COUNT,[1],5.36 x10E6/uL
same,HEMATOCRIT,[1],33.6%
same,HEMOGLOBIN,[1],13.03 G/DL
same,LEUKOCYTE COUNT,[1],9.07 x10E3/uL
same,LYMPHOCYTE,[1],87.67%
same,MEAN CORPUSCULAR HEMOGLOBIN,[1],24.33 pg
same,MEAN CORPUSCULAR HEMOGLOBIN CONCENTRATION,[1],38.8 G/DL
same,MEAN CORPUSCULAR VOLUME,[1],62.63 fL
same,MONOCYTE,[1],0.67%
same,NEUTROPHIL,[1],10.67%
same,NUCLEATED RED BLOOD CELLS,[1],0 /100WBC
same,PLATELET COUNT,[1],1083 x10E3/uL
same,ALANINE AMINOTRANSFERASE,[1],54.67 u/L
same,ALKALINE PHOSPHATASE,[1],331 u/L
same,ASPARTATE AMINOTRANSFERASE,[1],95.67 u/L
same,BLOOD UREA NITROGEN,[1],13.33 mg/dL
same,CARBON DIOXIDE,[1],27 mmol/L
same,CHLORIDE,[1],101.67 MEQ/L
same,CHOLESTEROL,[1],59.67 mg/dL
same,CREATINE PHOSPHOKINASE,[1],568.67 u/L
same,CREATININE,[1],0.17 mg/dL
same,GLUCOSE,[1],162.33 mg/dL
same,LACTATE DEHYDROGENASE,[1],99.67 u/L
same,LIPASE,[1],10.33 u/L
same,PHOSPHORUS,[1],9.13 mg/dL
same,POTASSIUM,[1],5.69 MEQ/L
same,SODIUM,[1],147.3 MEQ/L
same,TOTAL BILIRUBIN,[1],0.2 mg/dL
same,TOTAL PROTEIN,[1],5.73 G/DL
same,URIC ACID,[1],0.57 mg/dL
same,ABSOLUTE BASOPHIL,[2],0 CELLS/uL
same,ABSOLUTE EOSINOPHIL,[2],0 CELLS/uL
same,ABSOLUTE LYMPHOCYTE,[2],9449.33 CELLS/uL
same,ABSOLUTE MONOCYTE,[2],225 CELLS/uL
same,ABSOLUTE SEGMENTED NEUTROPHIL,[2],1559 CELLS/uL
same,BASOPHIL,[2],0%
same,EOSINOPHIL,[2],0%
same,ERYTHROCYTE COUNT,[2],6.26 x10E6/uL
same,HEMATOCRIT,[2],38.97%
same,HEMOGLOBIN,[2],14.93 G/DL
same,LEUKOCYTE COUNT,[2],11.23 x10E3/uL
same,LYMPHOCYTE,[2],84.67%
same,MEAN CORPUSCULAR HEMOGLOBIN,[2],23.83 pg
same,MEAN CORPUSCULAR HEMOGLOBIN CONCENTRATION,[2],38.3 G/DL
same,MEAN CORPUSCULAR VOLUME,[2],62.3 fL
same,MONOCYTE,[2],2%
same,NEUTROPHIL,[2],13.33%
same,NUCLEATED RED BLOOD CELLS,[2],0 /100WBC
same,PLATELET COUNT,[2],976.33 x10E3/uL
same,ALANINE AMINOTRANSFERASE,[2],78.33 u/L
same,ALKALINE PHOSPHATASE,[2],354.33 u/L
same,ASPARTATE AMINOTRANSFERASE,[2],109.33 u/L
same,BLOOD UREA NITROGEN,[2],12.67 mg/dL
same,CARBON DIOXIDE,[2],29.67 mmol/L
same,CHLORIDE,[2],97 MEQ/L
same,CHOLESTEROL,[2],128 mg/dL
same,CREATINE PHOSPHOKINASE,[2],511 u/L
same,CREATININE,[2],0.21 mg/dL
same,GLUCOSE,[2],125 mg/dL
same,LACTATE DEHYDROGENASE,[2],138.67 u/L
same,LIPASE,[2],40.67 u/L
same,PHOSPHORUS,[2],7.87 mg/dL
same,POTASSIUM,[2],5.77 MEQ/L
same,SODIUM,[2],142 MEQ/L
same,TOTAL BILIRUBIN,[2],0.7 mg/dL
same,TOTAL PROTEIN,[2],5.53 G/DL
same,URIC ACID,[2],0.6 mg/dL
same,ABSOLUTE BASOPHIL,[3],0 CELLS/uL
same,ABSOLUTE EOSINOPHIL,[3],0 CELLS/uL
same,ABSOLUTE LYMPHOCYTE,[3],8085.67 CELLS/uL
same,ABSOLUTE MONOCYTE,[3],101 CELLS/uL
same,ABSOLUTE SEGMENTED NEUTROPHIL,[3],1546.67 CELLS/uL
same,BASOPHIL,[3],0%
same,EOSINOPHIL,[3],0%
same,ERYTHROCYTE COUNT,[3],5 x10E6/uL
same,HEMATOCRIT,[3],31.27%
same,HEMOGLOBIN,[3],12.03 G/DL
same,LEUKOCYTE COUNT,[3],9.73 x10E3/uL
same,LYMPHOCYTE,[3],82.67%
same,MEAN CORPUSCULAR HEMOGLOBIN,[3],24.07 pg
same,MEAN CORPUSCULAR HEMOGLOBIN CONCENTRATION,[3],38.53 G/DL
same,MEAN CORPUSCULAR VOLUME,[3],62.43 fL
same,MONOCYTE,[3],1%
same,NEUTROPHIL,[3],16.33%
same,NUCLEATED RED BLOOD CELLS,[3],0 /100WBC
same,PLATELET COUNT,[3],1551.67 x10E3/uL
same,ALANINE AMINOTRANSFERASE,[3],64.67 u/L
same,ALKALINE PHOSPHATASE,[3],210.67 u/L
same,ASPARTATE AMINOTRANSFERASE,[3],87.67 u/L
same,BLOOD UREA NITROGEN,[3],15.33 mg/dL
same,CARBON DIOXIDE,[3],27.67 mmol/L
same,CHLORIDE,[3],101 MEQ/L
same,CHOLESTEROL,[3],108.33 mg/dL
same,CREATINE PHOSPHOKINASE,[3],236 u/L
same,CREATININE,[3],0.23 mg/dL
same,GLUCOSE,[3],135 mg/dL
same,LACTATE DEHYDROGENASE,[3],68.67 u/L
same,LIPASE,[3],11.33 u/L
same,PHOSPHORUS,[3],9.1 mg/dL
same,POTASSIUM,[3],5.66 MEQ/L
same,SODIUM,[3],145.9 MEQ/L
same,TOTAL BILIRUBIN,[3],0.33 mg/dL
same,TOTAL PROTEIN,[3],5.3 G/DL
same,URIC ACID,[3],0.77 mg/dL
